{
  "source": "patent US6337087B1",
  "about": "“Aqueous pharmaceutical composition comprising an active ingredient which is highly insoluble in water” (Aziende Chimiche Riunite Angelini Francesco A.C.R.A.F. …, priority 1997, dated 2002)",
  "experiment": "initial solubility of the active ingredient",
  "assay_type": "physicochemical",
  "conditions": "active ingredient without liposomes, aqueous",
  "data": [
    {"smiles": "O=C(O)c1nn(Cc2ccc(Cl)cc2Cl)c2ccccc12", "note": "[lonidamine]", "values": [
      {"measurement": "solubility", "value": 3, "unit": "µg/mL"}
    ]}
  ]
}
